Results published in PubChem BioAssay AID1259411 (Chemical Carcinogenesis Research Information System (CCRIS), 2018).
Active and inactive are the calls of the source. How the calls were made is not given here.

Test system: rodent carcinogenicity bioassays, tumor incidence
Experiment: CCRIS carcinogenicity studies
In short: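 NCI-built, expert-reviewed records of carcinogenicity and related test outcomes (mutagenicity, tumor promotion/inhibition) compiled from published and report sources, historical span 1985-2011, not updated.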

SMILES: Cc1ccc(N(CC2=NCCN2)c2cccc(O)c2)cc1
- carcinogen call (Species: RAT, Strain/Sex: CRL:CD BR/MALE, FEMALE (65/GROUP), Route: ORAL (GAVAGE), Dose: 10, 50, 150 MG/KG DAILY IN DISTILLED WATER (STUDY DURATION: 101 WK), Dose: 10, 50, 150 MG/KG DAILY IN DISTILLED WATER (STUDY DURATION: 101 WK), Tumor Site: Type of Lesion: BROWN ADIPOSE TISSUE: HIBERNOMA): active; positive
- carcinogen call (Species: RAT, Strain/Sex: CRL:CD BR/MALE, FEMALE (65/GROUP), Route: ORAL (GAVAGE), Dose: 10, 50, 150 MG/KG DAILY IN DISTILLED WATER (STUDY DURATION: 101 WK), Dose: 10, 50, 150 MG/KG DAILY IN DISTILLED WATER (STUDY DURATION: 101 WK), Tumor Site: Type of Lesion: PITUITARY: ADENOMA): active; positive

SMILES: CCC(O)OC (configuration not stated)
- carcinogen call (Species: MOUSE, Strain/Sex: B6C3F1/FEMALE, Route: INHALATION, Dose: 0, 300, 1000, 3000 PPM 6 HR/D 5 D/WK FOR 2 YR (STUDY DURATION: 2 YR), Dose: 0, 300, 1000, 3000 PPM 6 HR/D 5 D/WK FOR 2 YR (STUDY DURATION: 2 YR)): inactive; negative
- carcinogen call (Species: MOUSE, Strain/Sex: B6C3F1/MALE, Route: INHALATION, Dose: 0, 300, 1000, 3000 PPM 6 HR/D 5 D/WK FOR 2 YR (STUDY DURATION: 2 YR), Dose: 0, 300, 1000, 3000 PPM 6 HR/D 5 D/WK FOR 2 YR (STUDY DURATION: 2 YR)): inactive; negative
- carcinogen call (Species: RAT, Strain/Sex: F344/FEMALE, Route: INHALATION, Dose: 0, 300, 1000, 3000 PPM 6 HR/D 5 D/WK FOR 2 YR (STUDY DURATION: 2 YR), Dose: 0, 300, 1000, 3000 PPM 6 HR/D 5 D/WK FOR 2 YR (STUDY DURATION: 2 YR)): inactive; negative
- carcinogen call (Species: RAT, Strain/Sex: F344/MALE, Route: INHALATION, Dose: 0, 300, 1000, 3000 PPM 6 HR/D 5 D/WK FOR 2 YR (STUDY DURATION: 2 YR), Dose: 0, 300, 1000, 3000 PPM 6 HR/D 5 D/WK FOR 2 YR (STUDY DURATION: 2 YR)): inactive; negative

SMILES: Nc1cccc2c(N)cccc12
- carcinogen call (Species: MOUSE, Strain/Sex: B6C3F1/FEMALE, Route: ORAL, Dose: 0, 0.1, 0.2% IN DIET FOR 103 WK (STUDY DURATION: 105-109 WK), Dose: 0, 0.1, 0.2% IN DIET FOR 103 WK (STUDY DURATION: 105-109 WK), Tumor Site: Type of Lesion: LUNG: ALVEOLAR/BRONCHIOLAR ADENOMA OR CARCINOMA, LIVER: HEPATOCELLULAR CARCINOMA, HEPATOCELLULAR ADENOMA OR CARCINOMA, T, Tumor Site: Type of Lesion: LUNG: ALVEOLAR/BRONCHIOLAR ADENOMA OR CARCINOMA, LIVER: HEPATOCELLULAR CARCINOMA, HEPATOCELLULAR ADENOMA OR CARCINOMA, T): active; positive
- carcinogen call (Species: MOUSE, Strain/Sex: B6C3F1/MALE, Route: ORAL, Dose: 0, 0.1, 0.2% IN DIET FOR 103 WK (STUDY DURATION: 105-109 WK), Dose: 0, 0.1, 0.2% IN DIET FOR 103 WK (STUDY DURATION: 105-109 WK), Tumor Site: Type of Lesion: THYROID GLAND: PAPILLARY ADENOMA OR FOLLICULAR CELL ADENOMA OR PAPILLARY CYSTADENOMA (NOS)): active; positive
- carcinogen call (Species: RAT, Strain/Sex: F344/FEMALE, Route: ORAL, Dose: 0, 0.05, 0.1% IN DIET FOR 103 WK (STUDY DURATION: 106-110 WK), Dose: 0, 0.05, 0.1% IN DIET FOR 103 WK (STUDY DURATION: 106-110 WK), Tumor Site: Type of Lesion: CLITORAL GLAND: ADENOMA (NOS) OR CARCINOMA (NOS), UTERUS: ENDOMETRIAL STROMAL POLYP): active; positive
- carcinogen call (Species: RAT, Strain/Sex: F344/MALE, Route: ORAL, Dose: 0, 0.05, 0.1% IN DIET FOR 103 WK (STUDY DURATION: 106-109 WK), Dose: 0, 0.05, 0.1% IN DIET FOR 103 WK (STUDY DURATION: 106-109 WK)): inactive; negative

SMILES: CCC1(c2ccccc2)C(=O)NC(=O)NC1=O
- carcinogen call (Species: MOUSE, Strain/Sex: 6HF1/MALE, Route: ORAL, Dose: 0, 0.05% IN BASAL DIET FOR 104 WK (STUDY DURATION: 104 WK), Tumor Site: Type of Lesion: LIVER: TUMOR): active; positive

SMILES: Clc1ccc(C(c2ccc(Cl)cc2)C(Cl)Cl)cc1
- carcinogen call (Species: MOUSE, Strain/Sex: B6C3F1/FEMALE, Route: ORAL, Dose: 0, 411, 822 PPM IN DIET FOR 78 WK (STUDY DURATION: 93 WK), Dose: 0, 411, 822 PPM IN DIET FOR 78 WK (STUDY DURATION: 93 WK)): inactive; negative
- carcinogen call (Species: MOUSE, Strain/Sex: B6C3F1/MALE, Route: ORAL, Dose: 0, 411, 822 PPM IN DIET FOR 78 WK (STUDY DURATION: 93 WK), Dose: 0, 411, 822 PPM IN DIET FOR 78 WK (STUDY DURATION: 93 WK)): inactive; negative
- carcinogen call (Species: MOUSE, Strain/Sex: CF-1/MALE,FEMALE, Route: ORAL, Dose: 250 PPM IN DIET, Tumor Site: Type of Lesion: LUNG): active; positive
- carcinogen call (Species: RAT, Strain/Sex: OSBORNE-MENDEL/FEMALE, Route: ORAL, Dose: 0, 850, 1700 PPM IN DIET FOR 78 WK (STUDY DURATION: 113 WK), Dose: 0, 850, 1700 PPM IN DIET FOR 78 WK (STUDY DURATION: 113 WK)): inactive; negative
- carcinogen call (Species: RAT, Strain/Sex: OSBORNE-MENDEL/MALE, Route: ORAL, Dose: 0, 1647, 3294 PPM IN DIET FOR 78 WK (STUDY DURATION: 113 WK), Dose: 0, 1647, 3294 PPM IN DIET FOR 78 WK (STUDY DURATION: 113 WK), Tumor Site: Type of Lesion: THYROID GLAND: FOLLICULAR CELL CARCINOMA OR ADENOMA): equivocal

SMILES: Cc1cccc(C)c1NC(=O)CN1CCCC1=O
- carcinogen call (Species: MOUSE, Strain/Sex: B6C3F1/FEMALE, Route: ORAL, Dose: 0, 30, 90, 270 MG/KG/D IN DIET FOR 104 WK (STUDY DURATION: 104 WK), Dose: 0, 30, 90, 270 MG/KG/D IN DIET FOR 104 WK (STUDY DURATION: 104 WK)): inactive; negative
- carcinogen call (Species: MOUSE, Strain/Sex: B6C3F1/MALE, Route: ORAL, Dose: 0, 30, 90, 270 MG/KG/D IN DIET FOR 104 WK (STUDY DURATION: 104 WK), Dose: 0, 30, 90, 270 MG/KG/D IN DIET FOR 104 WK (STUDY DURATION: 104 WK)): inactive; negative
- carcinogen call (Species: RAT, Strain/Sex: F344/FEMALE, Route: ORAL, Dose: 0, 200, 600, 1800 PPM IN DIET FOR 104 WK (STUDY DURATION: 104 WK), Dose: 0, 200, 600, 1800 PPM IN DIET FOR 104 WK (STUDY DURATION: 104 WK)): inactive; negative
- carcinogen call (Species: RAT, Strain/Sex: F344/MALE, Route: ORAL, Dose: 0, 200, 600, 1800 PPM IN DIET FOR 104 WK (STUDY DURATION: 104 WK), Dose: 0, 200, 600, 1800 PPM IN DIET FOR 104 WK (STUDY DURATION: 104 WK)): inactive; negative

SMILES: Nc1ccc(N)c(Cl)c1
- carcinogen call (Species: MOUSE, Strain/Sex: B6C3F1/FEMALE, Route: ORAL, Dose: 0, 0.3, 0.6% OF DIET, Dose: 0, 0.3, 0.6% OF DIET): inactive; negative
- carcinogen call (Species: MOUSE, Strain/Sex: B6C3F1/MALE, Route: ORAL, Dose: 0, 0.3, 0.6% OF DIET, Dose: 0, 0.3, 0.6% OF DIET): inactive; negative
- carcinogen call (Species: RAT, Strain/Sex: F344/FEMALE, Route: ORAL, Dose: 0, 0.15, 0.30% OF DIET, Dose: 0, 0.15, 0.30% OF DIET): inactive; negative
- carcinogen call (Species: RAT, Strain/Sex: F344/MALE, Route: ORAL, Dose: 0, 0.15, 0.30% OF DIET, Dose: 0, 0.15, 0.30% OF DIET): inactive; negative

SMILES: Clc1cccc(-c2cccc(Cl)c2)c1
- carcinogen call (Species: RAT, Strain/Sex: WISTAR/MALE, Route: ORAL, Dose: 0, 100 PPM IN DIET FOR DURATION OF STUDY (STUDY DURATION: 832 D)): inactive; negative

SMILES: O=C1OC(O)C(C(Cl)Cl)=C1Cl (configuration not stated)
- carcinogen call (Species: RAT, Strain/Sex: WISTAR/FEMALE, Route: ORAL, Dose: 0, 0.6, 1.9, 6.6 MG/KG BW IN DRINKING WATER FOR 104 WK (STUDY DURATION: 104 WK), Dose: 0, 0.6, 1.9, 6.6 MG/KG BW IN DRINKING WATER FOR 104 WK (STUDY DURATION: 104 WK), Tumor Site: Type of Lesion: MAMMARY GLAND: ADENOCARCINOMA, FIBROADENOMA, HEMATOPOIETIC SYSTEM: LYMPHOMA OR LEUKEMIA, LIVER: CHOLANGIOMA, ADENOMA, AD, Tumor Site: Type of Lesion: MAMMARY GLAND: ADENOCARCINOMA, FIBROADENOMA, HEMATOPOIETIC SYSTEM: LYMPHOMA OR LEUKEMIA, LIVER: CHOLANGIOMA, ADENOMA, AD): active; positive
- carcinogen call (Species: RAT, Strain/Sex: WISTAR/MALE, Route: ORAL, Dose: 0, 0.4, 1.3, 5 MG/KG BW IN DRINKING WATER FOR 104 WK (STUDY DURATION: 104 WK), Dose: 0, 0.4, 1.3, 5 MG/KG BW IN DRINKING WATER FOR 104 WK (STUDY DURATION: 104 WK), Tumor Site: Type of Lesion: SKIN (SUBCUTANEOUS TISSUE): BASAL CELL TUMOR, LUNG: ALVEOLAR/BRONCHIOLAR ADENOMA, LIVER: CHOLANGIOMA,ADENOMA, PANCREAS (, Tumor Site: Type of Lesion: SKIN (SUBCUTANEOUS TISSUE): BASAL CELL TUMOR, LUNG: ALVEOLAR/BRONCHIOLAR ADENOMA, LIVER: CHOLANGIOMA,ADENOMA, PANCREAS (): active; positive
